# Laboratory results from patent EP0721774A2, “Anti-microbial compositions” (UNILEVER N.V., priority 1994, dated 1996).
# What was measured:
# [1] = test system: S.mutans; assay: Minimum inhibitory concentration (MIC), spot dilution on lawned SDM agar plates; type: cell-based, Streptococcus mutans
# Experimental: (§1) The minimum inhibitory concentrations (MICs) of these peptides were determined as follows: Organisms were subcultured from BHIS agar into BHI broth and incubated at 37°C for 2 days. They were then diluted 1/100 in fresh broth and flooded onto pre-dried SDM agar plates. Excess culture was removed by pipetting. Plates were then allowed to dry at room temperature. The various synthesised peptides were dissolved in sterile water at a concentration of 1 %. Doubling dilutions, in water, were carried out down to 0.03 %. 15 µl of each dilution was spotted onto the lawned cultures, allowed to dry and then the plates were incubated at 37°C for 2 days. Plates were then read for zones of inhibition. The MIC was taken as the lowest dilution still causing visible growth inhibition.
# (§2) All organisms were routinely grown on supplemented Brain Heart Infusion agar (Difco) and when appropriate subcultured into Brain Hearth Infusion broth (Difco). For MIC assays a chemically defined solid medium (SDM) was used^(5).
# The organisms used were the following: Streptococcus mutans strains were clinical isolates, from the plaque of panellists in oral ecology studies. […] SM11060 belonged to serotype f and SM10919 belonged to serotype g. Strain SMB13 (serotype d) was supplied by PHLS, Porton Down.
# [2] = test system: S.sanguis; assay: as above; type: cell-based, Streptococcus sanguis
# Experimental: as §1, §2
# Streptococcus sanguis strains were all clinical isolates from the plaque of panellists in ongoing oral ecology studies.
# [3] = test system: Lactobacilli; assay: as above; type: cell-based
# Experimental: as §1, §2
# Lactobacilli were from the in house Colworth Microbial Culture Collection. SB115 and SB116 were L.casei var. rhamnosus, SB82 had been classified as L.plantarum, SB83 and SB85 were Lactobacillus sp. and SB 9 was L.casei.
# [4] = test system: S.salivarius; assay: as above; type: cell-based, Steptococcus salivarius
# Experimental: as §1, §2
# Steptococcus salivarius strans were all wild plaque isolates from oral ecology studies.
# [5] = test system: Actinomyces; assay: as above; type: cell-based
# Experimental: as §1, §2
# Actinomyces 12/2, 69A and 41A were plaque isolates from oral ecology studies.
# [6] = test system: Candida; assay: as above; type: cell-based
# Experimental: as §1, §2
# Candida strains 83 and 41 were isolated from oral ecology studies.
# [7] = test system: C. albicans; details: compared among histatins -1, -3 and -5; cited from earlier work
substance,measurement,setting,value
Histatin-5,MIC,[1]; strain SM1dg,1.0%
same,MIC,[1]; strain SM24dg,1.0%
same,MIC,[1]; strain SM28B,1.0%
same,MIC,[1]; strain SM44A,0.5%
same,MIC,[1]; strain SM84C,1.0%
same,MIC,[1]; strain SM148dg,0.5%
same,MIC,[1]; strain SM189,0.5%
same,MIC,[1]; strain SM211,0.25%
same,MIC,[1]; strain SM6715,0.5%
same,MIC,[1]; strain SM10449,0.25%
same,MIC,[1]; strain SMNW1,1.0%
same,MIC,[1]; strain SMNW6,1.0%
same,MIC,[1]; strain SMNW10,0.5%
same,MIC,[2]; strain 6/9,growth stimulated
same,MIC,[2]; strain 10/23,growth stimulated
same,MIC,[2]; strain SS209,growth stimulated
same,MIC,[3]; strain SB9 (L.casei),1.0%
same,MIC,[3]; strain SB81,0.125%
same,MIC,[3]; strain SB82 (L.plantarum),0.125%
same,MIC,[3]; strain SB116 (L.casei var. rhamnosus),1.5%
same,MIC,[4]; strain 2/7,growth stimulated
same,MIC,[4]; strain 2/27,growth stimulated
same,MIC,[4]; strain 14/9,growth stimulated
same,MIC,[5]; strain 10A,1.0%
same,MIC,[5]; strain 11A,0.5%
same,MIC,[5]; strain 16A,growth stimulated
same,MIC,[5]; strain 41A,1.0%
same,MIC,[5]; strain 69A,growth stimulated
same,MIC,[5]; strain 71A,0.5%
same,MIC,[6]; strain 41,>1.0%
same,MIC,[6]; strain 83,>1.0%
same,ability to kill the pathogenic yeast C. albicans,[7],most effective
